Assay results published in the RepoRT retention time repository.

test: Agilent ZORBAX 300 SB-C18, 150 × 1 mm, 3.5 µm; A: water + 0.01% heptafluorobutyric acid; B: acetonitrile + 0.01% heptafluorobutyric acid; gradient (min/%B) 0/0 100/90; details: stereoisomer not certain

`C1=Nc2ccccc2C(c2ccccc2)C1c1ccc2ccccc2n1` (centres undefined) and `c1ccc(Nc2nc(-c3ccccc3)nc3ccccc23)cc1` are within 1.5-fold of each other in LC retention time: 11.8 min for the first, 11.9 min for the second.

`CC1CNCC(C)N1` (centres undefined) and `NCC1CCNCC1` are within 1.5-fold of each other in LC retention time: 6.7 min for the first, 6.49 min for the second.

`CCCCn1c2ccccc2n2cc(C(C)(C)C)nc12` and `Cc1ccc(C(=O)Cn2c(=N)n(C)c3ccccc32)cc1` are within 1.5-fold of each other in LC retention time: 12.2 min for the first, 10.6 min for the second.

First: O=C(O)Cc1c[nH]c(=O)[nH]c1=O
Second: O=C(O)c1n[nH]c(=O)[nH]1
The LC retention time of the first is 1.7-fold higher: 2.17 min for the first, 1.25 min for the second.

Going from `Cc1cccc(N)c1C` to `Cc1ccc(C(=O)NCc2ccco2)c(C)c1`, the LC retention time rises from 8.05 min to 12.3 min (1.5-fold).

`CNc1ccccn1` and `NC(=S)CCc1ccccn1` are within 1.5-fold of each other in LC retention time: 6.54 min for the first, 6.55 min for the second.

Compared with `CN(C)CCCNC(=O)C(=O)NC1CC1`, `CCCCCCCCCN(C)C` is 1.6-fold higher in LC retention time: 6.89 min for the first, 11.1 min for the second.

`Cn1c(C2CCCCC2)nc2ccccc21` and `S=C(Nc1ccccn1)NC1CCCCC1` are within 1.5-fold of each other in LC retention time: 9.55 min for the first, 10.7 min for the second.

Going from `O=C(O)c1ccccc1CN1CCCC1` to `O=C(O)CCN1CCCc2ccccc21`, the LC retention time rises from 7.5 min to 11.3 min (1.5-fold).

`CN(C)c1ccc(C=NNC(=O)Cc2n[nH]c(=O)[nH]c2=O)cc1` and `O=c1[nH]c(N=NCc2ccccc2O)nnc1Cc1ccccc1` are within 1.5-fold of each other in LC retention time: 8.47 min for the first, 11.4 min for the second.

`CCC1(c2ccccc2)C(=O)NC(=O)N(C)C1=O` (centres undefined) and `CN1C(=O)C2CN(CCc3ccccc3)CNC2N(C)C1=O` (centres undefined) are within 1.5-fold of each other in LC retention time: 11.3 min for the first, 8.29 min for the second.

First: Cc1ccc(C)n1Cc1ccccc1
Second: CC(Cc1ccccc1)N(C)Cc1ccccc1 (centres undefined)
The LC retention time of the first is 1.6-fold higher: 16.8 min for the first, 10.8 min for the second.

Going from `COc1ccc(C(=O)C=Cc2ccc(OC)c(COc3cccc(C)c3C)c2)cc1` to `O=C(C=Cc1ccccc1)c1ccc(O)cc1`, the LC retention time falls from 19.9 min to 12.9 min (1.5-fold).

Going from `C#CCN(C)C` to `CN(C)Cc1c[nH]c2ccccc12`, the LC retention time rises from 4.22 min to 7.66 min (1.8-fold).

`COc1ccc(-c2cc(=O)c3c(ccc4ccccc43)o2)cc1` and `Cc1ccc(-c2cc(C(=O)O)c3ccccc3n2)cc1` are within 1.5-fold of each other in LC retention time: 17 min for the first, 12.4 min for the second.

`O=C1CCC2(O)C3Cc4ccc(O)c5c4C2(CCN3CC2CC2)C1O5` (centres undefined) and `Nc1ccc(N2CCOCC2)c(N)c1` are within 1.5-fold of each other in LC retention time: 8.38 min for the first, 7.33 min for the second.

Going from `CCn1c2ccccc2c2cc(C(=O)O)ccc21` to `CC(=O)N=Nc1c(O)[nH]c2ccccc12`, the LC retention time falls from 13.5 min to 7.66 min (1.8-fold).

`Cc1cccnn1` and `CCn1cc(-c2ccn[nH]2)cn1` are within 1.5-fold of each other in LC retention time: 5.91 min for the first, 7.93 min for the second.

`CCCOC(C)n1cccc1-c1ccccc1` (centres undefined) and `CC(C)OC(C)n1cccc1-c1ccccc1` (centres undefined) are within 1.5-fold of each other in LC retention time: 18 min for the first, 17.7 min for the second.

`CC(=O)Nc1nc(=S)n(-c2ccccc2)[nH]1` and `CC(C)(C)C(=O)NNc1ccccc1` are within 1.5-fold of each other in LC retention time: 9.02 min for the first, 10.5 min for the second.

`CCCC[N+]1(CCCC)CC[N+](CCCC)(CCCC)CC1` and `CCCCCCCCCCCN` are within 1.5-fold of each other in LC retention time: 9.16 min for the first, 12.2 min for the second.

`O=Cc1cccc2[nH]ccc12` and `c1ccc2[nH]ncc2c1` are within 1.5-fold of each other in LC retention time: 9.79 min for the first, 9.07 min for the second.

Compared with `COc1cc2ccccc2cc1CNc1ccccc1`, `Nc1cccc(Nc2ccccc2)c1` is 1.6-fold lower in LC retention time: 15.7 min for the first, 9.53 min for the second.

`c1ccc(CNCc2ccccc2)cc1` and `CC(CCc1ccccc1)NCc1ccco1` (centres undefined) are within 1.5-fold of each other in LC retention time: 9.71 min for the first, 9.89 min for the second.

First: CCCCCCCCCN
Second: NCCCCCCCCN
The LC retention time of the first is 1.5-fold higher: 11 min for the first, 7.2 min for the second.

`c1ccc2c(c1)Cc1cc3ccccc3nc1-2` and `CC(NC(=O)c1ccc(CN2CCc3ccccc3C2)cc1)c1ccccc1` (centres undefined) are within 1.5-fold of each other in LC retention time: 11.4 min for the first, 10.5 min for the second.

Compared with `COc1ccc(NC(C)c2ccccc2)cc1` (centres undefined), `NC(=O)C(N)c1ccccc1` (centres undefined) is 1.6-fold lower in LC retention time: 10.7 min for the first, 6.56 min for the second.

`CN(CCCN)CCCN` and `CCCN(CCC)CCC` are within 1.5-fold of each other in LC retention time: 7.45 min for the first, 8.17 min for the second.

`CCN(CC)C(=O)N1CCN(C)CC1` and `COC(=O)CC1CC(C)(C)NC(C)(C)C1` are within 1.5-fold of each other in LC retention time: 7.39 min for the first, 8 min for the second.

`CCCCCCC(C)NCCO` (centres undefined) and `CCOC(=O)C=CC(=O)NNC(=O)CCC(=O)Nc1ccc(C)cc1C` are within 1.5-fold of each other in LC retention time: 9.31 min for the first, 10.1 min for the second.

`C=CN1CCCC1=O` and `Cc1[nH]c2c(c1C)C(=O)CCC2` are within 1.5-fold of each other in LC retention time: 7.85 min for the first, 8.94 min for the second.

Going from `O=c1cc[nH]cc1` to `COC(=O)C(c1ccccc1)C1CCCCN1` (centres undefined), the LC retention time rises from 4.89 min to 9.49 min (1.9-fold).

Going from `NC(=O)CC(NC(N)=O)C(=O)O` (centres undefined) to `COC(=O)c1ccc2[nH]c3c(c2c1)CCCC3`, the LC retention time rises from 1.47 min to 14.8 min (10-fold).

`Cc1nn(CC(=O)NC2CC(C)(C)NC(C)(C)C2)c(=O)c2ccccc12` and `Nc1nc(N)nc(Cc2ccccc2)n1` are within 1.5-fold of each other in LC retention time: 8.35 min for the first, 7.96 min for the second.

For `CCn1c(C)n[nH]c1=S`, the LC retention time was 6.98 min.
